This assay concerns PBMC. As to the kind of experiment: IFN-γ ELISPOT assay of T cell responses to HERV and HIV-1 peptides. The class given is cell-based, Human. As to conditions: a study participant whose PBMC were used for the 51Cr release assay. How it is done:
HIV-1 positive volunteers were selected for this study. The study was approved by the local institutional review board and subjects were given written informed consent. Studies were performed on cryopreserved PBMC from various patient timepoints.
ELISPOT analysis was performed as previously described^34. Plates were incubated 15-18 hours at 37° C. Equivalent antigen concentrations were used for HIV and HERV peptide response comparisons. Assays were performed with duplicate wells for each condition, expect where cell recovery from archived samples dictated the use of single wells. Plates were counted with an AID ELISPOT reader (Cell Technology,). Spot totals for duplicate wells were averaged, and all spot numbers were normalized to numbers of IFN-γ spot-forming units (SFU) per 1×10^6PBMC. Spot values from media control wells were subtracted to determine responses to each peptide. Any resulting peptide values <0 following media subtraction were set to 0 for further analysis.

For the sequence IPVHKAHKKQ [HERV-L IQ10], the “response of study participant's PBMC to peptide” value is “responded”.
